Where a name gives a salt, the structure may show the parent alone.

Experimental findings from patent US7696212B2, “Xanthine derivatives, the preparation thereof and their use as pharmaceutical compositions” (Boehringer Ingelheim Pharma GmbH and Co. KG, priority 2002, dated 2010) are described below.

The first series has as its system rats. Description: Tolerability after oral administration to rats (behaviour). The note with it: 10 mg/kg by oral route. The format is in vivo, rat.
For the compound `C/C=C/Cn1c(N2CCC[C@@H](N)C2)nc2c1c(=O)n(CC1=NCC(=O)Nc3ccccc31)c(=O)n2C` [Example 1(2), 1-[(2-oxo-2,3-dihydro-1H-benzo[e][1,4]diazepin-5-yl)methyl]-3-methyl-7-((E)-2-buten-1-yl)-8-((R)-3-amino-piperidin-1-yl)-xanthine], the “changes in the animals' behaviour” value is reported as “no changes in the animals' behaviour could be detected”.

System in another series: not given
Experiment: not given
Settings: not given
`CC(C)=CCn1c(N2CCCC(N)C2)nc2c1c(=O)n(CC1=CS(=O)(=O)N(C)c3ccccc31)c(=O)n2C` (centres unmarked) [Example 1, 1-[(1-methyl-2,2-dioxo-1H-benzo[c][1,2]thiazin-4-yl)methyl]-3-methyl-7-(3-methyl-2-buten-1-yl)-8-(3-amino-piperidin-1-yl)-xanthine] had a melting point of 200 to 205 °C.

For another series, the target named is T1, DPP-IV (Homo sapiens, UniProt P27487).
T1 construct: an extract of human colon carcinoma cell line Caco-2 is used as the DPP IV source; endogenous in cells; host or cells: Caco-2 (human colon carcinoma), differentiated to induce DPP-IV expression; solubilised in Nonidet-P40 buffer
T1 sequence (P27487 whole entry): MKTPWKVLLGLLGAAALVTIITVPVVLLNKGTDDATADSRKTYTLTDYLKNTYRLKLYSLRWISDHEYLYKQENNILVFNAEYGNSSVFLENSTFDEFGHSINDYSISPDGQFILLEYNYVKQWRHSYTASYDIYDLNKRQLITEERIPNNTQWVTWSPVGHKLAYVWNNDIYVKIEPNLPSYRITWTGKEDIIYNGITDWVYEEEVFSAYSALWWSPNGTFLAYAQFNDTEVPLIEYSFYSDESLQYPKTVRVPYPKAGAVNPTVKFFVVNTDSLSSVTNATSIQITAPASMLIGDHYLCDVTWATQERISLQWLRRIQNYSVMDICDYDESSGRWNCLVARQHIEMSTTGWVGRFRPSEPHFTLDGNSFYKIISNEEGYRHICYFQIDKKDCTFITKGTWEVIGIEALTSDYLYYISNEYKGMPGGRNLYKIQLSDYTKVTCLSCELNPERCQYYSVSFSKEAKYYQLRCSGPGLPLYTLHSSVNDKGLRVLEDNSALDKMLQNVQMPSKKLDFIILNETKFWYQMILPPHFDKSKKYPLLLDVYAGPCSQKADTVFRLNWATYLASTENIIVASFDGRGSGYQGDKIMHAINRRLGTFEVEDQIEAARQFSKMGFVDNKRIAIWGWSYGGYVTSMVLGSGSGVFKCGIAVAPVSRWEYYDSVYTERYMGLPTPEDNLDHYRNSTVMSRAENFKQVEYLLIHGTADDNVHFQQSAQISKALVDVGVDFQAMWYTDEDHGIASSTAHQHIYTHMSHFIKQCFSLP
Description: DPP-IV assay with extract of Caco-2 cells as DPP IV source, AFC substrate, fluorescence. The class given is biochemical. To be noted: extract of human colon carcinoma cell line Caco-2 as DPP IV source; substrate 100 μM; 60 minutes at ambient temperature; read-out: DPP IV inhibition IC50. How it is done: The differentiation of the cells in order to induce the DPP-IV expression was carried out as described by Reiher et al. in an article entitled “Increased expression of intestinal cell line Caco-2”, which appeared in Proc. Natl. Acad. Sci. Vol. 90, pages 5757-5761 (1993). The cell extract was obtained from cells solubilised in a buffer (10 mM Tris HCl, 0.15 M NaCl, 0.04 t.i.u. aprotinin, 0.5% Nonidet-P40, pH 8.0) by centrifuging at 35,000 g for 30 minutes at 4° C. (to remove cell debris).
The DPP-IV assay was carried out as follows:
50 μl substrate solution (AFC; AFC is amido-4-trifluoromethylcoumarin), final concentration 100 μM, were placed in black microtitre plates. 20 μl of assay buffer (final concentrations 50 mM Tris HCl pH 7.8, 50 mM NaCl, 1% DMSO) was pipetted in. The reaction was started by adding 30 μl of solubilised Caco-2 protein (final concentration 0.14 μg of protein per well). The test substances to be investigated were typically added prediluted in 20 μl, and the volume of assay buffer was then reduced accordingly. The reaction was carried out at ambient temperature, incubating for 60 minutes. Then the fluorescence was measured in a Victor 1420 Multilabel Counter, the excitation wavelength being 405 nm and the emission wavelength being 535 nm. Blank readings (corresponding to 0% activity) were obtained in mixtures without any Caco-2 protein (volume replaced by assay buffer), control values (corresponding to 100% activity) were obtained in mixtures with no substance added. […]
On to `CC#CCn1c(N2CCCC(N)C2)nc2c1c(=O)n(CC1=NC(C)(C(=O)OC)Cc3ccccc31)c(=O)n2C` (centres unmarked) [1(1), 1-[(3-methoxycarbonyl-3-methyl-3,4-dihydro-isoquinolin-1-yl]methyl]-3-methyl-7-(2-butyn-1-yl)-8-(3-amino-piperidin-1-yl)-xanthine], for which the IC50 amounted to 32 nM.

As for `CC#CCn1c(N2CCCC(N)C2)nc2c1c(=O)n(Cc1nc3ccccc3c3ccccc13)c(=O)n2C` (centres unmarked) [1(3), 1-[(phenanthridin-6-yl)methyl]-3-methyl-7-(2-butyn-1-yl)-8-(3-amino-piperidin-1-yl)-xanthine-dihydrochloride], the IC50 was 5 nM.

As to `CC#CCn1c(N2CCCC(N)C2)nc2c1c(=O)n(Cc1nc3c(c4ccccc14)CCCC3)c(=O)n2C` (centres unmarked) [1(4), 1-[(1,2,3,4-tetrahydro-phenanthridin-6-yl)methyl]-3-methyl-7-(2-butyn-1-yl)-8-(3-amino-piperidin-1-yl)-xanthine x trifluoroacetic acid], the IC50 was 5 nM.

As to `CC#CCn1c(N2CCCC(N)C2)nc2c1c(=O)n(CC1=NC(C(F)(F)F)Cc3ccccc31)c(=O)n2C` (centres unmarked) [1(7), 1-[(3-trifluoromethyl-3,4-dihydro-isoquinolin-1-yl)methyl]-3-methyl-7-(2-butyn-1-yl)-8-(3-amino-piperidin-1-yl)-xanthine x trifluoroacetic acid], the IC50 was determined as 11 nM.

Take `CC#CCn1c(N2CCC[C@@H](N)C2)nc2c1c(=O)n(CC1=Nc3ccccc3Oc3ccccc31)c(=O)n2C` [1(8), 1-[(dibenzo[b,f][1,4]oxazepin-11-yl)methyl]-3-methyl-7-(2-butyn-1-yl)-8-((R)-3-amino-piperidin-1-yl)-xanthine]: the IC50 worked out at 4 nM.

For `CC#CCn1c(N2CCCC(N)C2)nc2c1c(=O)n(CC1=Nc3ccccc3CN1)c(=O)n2C` (centres unmarked) [1(10), 1-[(3,4-dihydro-quinazolin-2-yl)methyl]-3-methyl-7-(2-butyn-1-yl)-8-(3-amino-piperidin-1-yl)-xanthine], the IC50 was determined as 8 nM.

As for `CC#CCn1c(N2CCCC(N)C2)nc2c1c(=O)n(CC1=Nc3ccccc3N(C)c3ccccc31)c(=O)n2C` (centres unmarked) [1(12), 1-[(5-methyl-5H-dibenzo[b,e][1,4]diazepin-11-yl)methyl]-3-methyl-7-(2-butyn-1-yl)-8-(3-amino-piperidin-1-yl)-xanthine], the 50% inhibitory concentration (IC50) was 14 nM.

On to `CC#CCn1c(N2CCCC(N)C2)nc2c1c(=O)n(Cc1ccc3nonc3c1)c(=O)n2C` (centres unmarked) [1(15), 1-[(benzo[1,2,5]oxadiazol-5-yl)methyl]-3-methyl-7-(2-butyn-1-yl)-8-(3-amino-piperidin-1-yl)-xanthine], for which the 50% inhibitory concentration (IC50) was found to be 11 nM.

`CC#CCn1c(N2CCC[C@@H](N)C2)nc2c1c(=O)n(Cc1nc3ccccc3c3ccccc13)c(=O)n2C1CC1` [1(20), 1-[(phenanthridin-6-yl)methyl]-3-cyclopropyl-7-(2-butyn-1-yl)-8-((R)-3-amino-piperidin-1-yl)-xanthine]: the half-inhibitory concentration (IC50) amounted to 10 nM.

In the case of `CC#CCn1c(N2CCCC(N)C2)nc2c1c(=O)n(Cc1nc3ccccc3c3ncccc13)c(=O)n2C` (centres unmarked) [1(25), 1-[(benzo[h][1,6]naphthyridin-5-yl)methyl]-3-methyl-7-(2-butyn-1-yl)-8-(3-amino-piperidin-1-yl)-xanthine], the IC50 turned out to be 7 nM.

Consider `CC#CCn1c(N2CCCC(N)C2)nc2c1c(=O)n(Cc1nc3ccccc3c3ccnn13)c(=O)n2C` (centres unmarked) [1(26), 1-[(pyrazolo[1,5-c]quinazolin-5-yl)methyl]-3-methyl-7-(2-butyn-1-yl)-8-(3-amino-piperidin-1-yl)-xanthine], for which the IC50 came to 7 nM.

As to `CC#CCn1c(N2CCCC(N)C2)nc2c1c(=O)n(Cc1nc3ncccc3c3ccccc13)c(=O)n2C` (centres unmarked) [1(27), 1-[(benzo[c][1,8]naphthyridin-6-yl)methyl]-3-methyl-7-(2-butyn-1-yl)-8-(3-amino-piperidin-1-yl)-xanthine], the IC50 turned out to be 2 nM.

Take `CC#CCn1c(N2CCC[C@@H](N)C2)nc2c1c(=O)n(Cc1nc3cccnc3c3ccccc13)c(=O)n2C` [1(28), 1-[(benzo[c][1,5]naphthyridin-6-yl)methyl]-3-methyl-7-(2-butyn-1-yl)-8-((R)-3-amino-piperidin-1-yl)-xanthine]: the IC50 turned out to be 2 nM.

As to `CC#CCn1c(N2CCC[C@@H](N)C2)nc2c1c(=O)n(CC1=Nc3cccc4cccc(c34)N1)c(=O)n2C` [1(29), 1-[(1H-perimidin-2-yl)methyl]-3-methyl-7-(2-butyn-1-yl)-8-((R)-3-amino-piperidin-1-yl)-xanthine], the IC50 stood at 3 nM.

For the compound `CC#CCn1c(N2CCC[C@@H](N)C2)nc2c1c(=O)n(Cc1cc3nccnc3c3ccccc13)c(=O)n2C` [1(30), 1-[(benzo[f]quinoxalin-6-yl)methyl]-3-methyl-7-(2-butyn-1-yl)-8-((R)-3-amino-piperidin-1-yl)-xanthine], the IC50 came out at 3 nM.

As to `CC#CCn1c(N2CCCC(N)C2)nc2c1c(=O)n(Cc1cn3c(ccc4ccccc43)n1)c(=O)n2C` (centres unmarked) [1(32)], the IC50 came to 4 nM.

On to `CC#CCn1c(N2CCC[C@@H](N)C2)nc2c1c(=O)n(Cc1nc3ccccc3c3ccccc13)c(=O)n2C` [1(33), 1-[(phenanthridin-6-yl)methyl]-3-methyl-7-(2-butyn-1-yl)-8-((R)-3-amino-piperidin-1-yl)-xanthine], for which the IC50 stood at 4 nM.

Regarding `C/C=C/Cn1c(N2CCC[C@@H](N)C2)nc2c1c(=O)n(CC1=NCC(=O)Nc3ccccc31)c(=O)n2C` [Example 1(2), 1-[(2-oxo-2,3-dihydro-1H-benzo[e][1,4]diazepin-5-yl)methyl]-3-methyl-7-((E)-2-buten-1-yl)-8-((R)-3-amino-piperidin-1-yl)-xanthine], the IC50 came out at 6 nM.

Consider `CC(C)=CCn1c(N2CCCC(N)C2)nc2c1c(=O)n(CC1=CS(=O)(=O)N(C)c3ccccc31)c(=O)n2C` (centres unmarked) [Example 1, 1-[(1-methyl-2,2-dioxo-1H-benzo[c][1,2]thiazin-4-yl)methyl]-3-methyl-7-(3-methyl-2-buten-1-yl)-8-(3-amino-piperidin-1-yl)-xanthine], for which the IC50 was 13 nM.

Turning to `CC#CCn1c(N2CCCC(N)C2)nc2c1c(=O)n(CC1=NCCOc3ccccc31)c(=O)n2C` (centres unmarked) [Example 2, 1-[(2,3-dihydro-benzo[f][1,4]oxazepin-5-yl)methyl]-3-methyl-7-(2-butyn-1-yl)-8-(3-amino-piperidin-1-yl)-xanthine], the concentration for half-maximal inhibition (IC50) came out at 6 nM.

For the compound `CC(C)=CCn1c(N2CCCC(N)C2)nc2c1c(=O)n(/C=C1\NC(=O)c3ccccc31)c(=O)n2C` (centres unmarked) [Example 3, 1-[(3-oxo-2,3-dihydro-isoindol-1-ylidene)methyl]-3-methyl-7-(3-methyl-2-buten-1-yl)-8-(3-amino-piperidin-1-yl)-xanthine], the IC50 came out at 20 nM.
